Assay type in all cases: cell-based
The test system of test [1] is HCT-116 human colorectal carcinoma cells. As to the kind of experiment: Alamar Blue cell proliferation assay, HCT-116. The following applies: 96 h, anti-proliferative effect, about four days with compound, HCT-116 cells, read-out: AB: HCT-116. How it is done: (§1) A representative cell-proliferation assay protocol using Alamar Blue dye (stored at 4° C., use 20 ul per well) is described hereafter.
(§2) a. Split and trypsinize cells.
(§3) b. Count cells using hemocytometer.
(§4) c. Plate 4,000-5,000 cells per well in 100 μl of medium and seed into a 96-well plate according to the following plate layout. Add cell culture medium only to wells B10 to B12. Wells B1 to B9 have cells but no compound added.
(§5) d. Add 100 μl of 2× drug dilution to each well in a concentration shown in the plate layout above. At the same time, add 100 μl of media into the control wells (wells B10 to B12). Total volume is 200 μl /well.
(§6) e. Incubate four (4) days at 37° C., 5% CO2 in a humidified incubator.
(§7) f. Add 20 μl Alamar Blue reagent to each well.
(§8) g. Incubate for four (4) hours at 37° C., 5% CO2 in a humidified incubator.
(§9) h. Record fluorescence at an excitation wavelength of 544 nm and emission wavelength of 590 nm using a microplate reader.
(§10) In the assays, cells are cultured with a test compound for approximately four days, the dye then is added to the cells and fluorescence of […] dye is detected after approximately four hours. Different types of cells can be utilized in the assays (e.g., HCT-116 human colorectal carcinoma cells, PC-3 human prostatic cancer cells and MiaPaca human pancreatic carcinoma cells). Anti-proliferative effects of representative compounds are provided in the Table below (i.e., “AB: HCT-116” and “AB: MiaPaCa” columns).
(In general: Alamar Blue is a resazurin reagent that responds to reducing activity.)

Test [2] has as its system MiaPaca human pancreatic carcinoma cells. The test can be described thus: Alamar Blue cell proliferation assay, MiaPaCa. Particulars: MIA PaCa-2, 96 h, anti-proliferative effect, about four days with compound, read-out: AB: MiaPaCa. How it is done:
as §1, §2, §3, §4, §5, §6, §7, §8, §9, §10

Test [3] concerns rRNA synthesis from 45S rDNA. As to the kind of experiment: QPCR assay of rRNA synthesis. Particulars: IC50 pertaining to rRNA synthesis, PCR with 5' ETS probe. How it is done:
A representative assay for determining whether a compound modulates rRNA production is set forth hereafter. Assays were conducted to determine the effects of compounds on rRNA synthesis from 45S rDNA. Synthesized rRNA was quantified by a polymerase chain reaction (PCR) assay. A primer/probe set was designed using Primer Express software and synthesized by Applied Biosystems. The 5′ ETS Probe utilized had the following sequence (at its 3′ end): 6FAM-TTG ATC CTG CCA GTA GC-MGBNFQ. The primer sequences were as follows:
(§11) Step 1. Reverse transcription of RNA to DNA
(§12) Fluorescence of digested label was detected and quantified. The effect of the compounds on rRNA synthesis were assessed in the assay, and provided in the table hereafter are IC50 values of selected compounds pertaining to rRNA synthesis and cMYC RNA synthesis.

Test [4] deals with C-myc transcription (cMYC RNA synthesis). The test can be described thus: QPCR control assay of C-myc transcription. Particulars: IC50 pertaining to cMYC RNA synthesis. How it is done: A control assay that detected effects of the compounds on C-myc transcription also was conducted using a primer/probe set purchased from ABI (TaqMan Gene Expression Assay with assay ID: Hs99999003_m1). The following assay protocol was utilized:
as §11, §12

The structures appear in SMILES notation.

Turning to `CN1CCN(NC(=O)c2c(=O)c3cc(F)c(N4CCOCC4)nc3n3c2sc2ccccc23)CC1` [Cmpd 3], the IC50 in test [1] worked out at 265 nM; in test [2] it was 225 nM; in test [3] it was 102 nM; in test [4], 6060 nM.

Regarding `CN1CCN(NC(=O)c2c(=O)c3cc(F)c(NN4CCN(C)CC4)nc3n3c2sc2ccccc23)CC1` [Cmpd 5], the IC50 amounted to 1750 nM in test [1], 486 nM in test [2] and 632 nM in test [3].

Take `CN1CCN(NC(=O)c2c(=O)c3ccc(N4CCOCC4)nc3n3c2[nH]c2ccccc23)CC1` [Cmpd 24]: the IC50 in test [1] worked out at 1420 nM.

As for `O=C(NN1CCOCC1)c1c(=O)c2ccc(N3CCOCC3)nc2n2c1sc1ccccc12` [Cmpd 6], the IC50 in test [1] was determined as 562 nM; in test [2], 549 nM; in test [3] it was 702 nM.

On to `CN1CCN(NC(=O)c2c(=O)c3ccc(N4CCCCC4)nc3n3c2sc2ccccc23)CC1` [Cmpd 11], for which the IC50 in test [1] is 915 nM; in test [2], 740 nM; in test [3], 3140 nM.

As for `CN1CCN(NC(=O)c2c(=O)c3ccc(NCCF)nc3n3c2sc2ccccc23)CC1` [Cmpd 12], the IC50 is 693 nM in test [1], 1030 nM in test [2] and 1580 nM in test [3].

Regarding `O=C(NNc1ccccn1)c1c(=O)c2cc(F)c(N3CCOCC3)nc2n2c1sc1ccccc12` [Cmpd 15], the results for the IC50 in test [1], in test [2] and in test [3] were 1310 nM, 5360 nM and 5550 nM, respectively.

Turning to `CN1CCN(NC(=O)c2c(=O)c3ccc(N(C)Cc4cnccn4)nc3n3c2sc2ccccc23)CC1` [Cmpd 2], the IC50 in test [1] amounted to 249 nM; in test [2], 1480 nM; in test [3] it was 696 nM.

On to `CN1CCN(NC(=O)c2c(=O)c3ccc(-c4ccc(CO)cc4)nc3n3c2sc2ccccc23)CC1` [Cmpd 20], for which the figures for the IC50 in test [1], in test [2] and in test [3] were 7140 nM, at least 50000 nM and 9710 nM, respectively.

`O=C(NN1CCCC1)c1c(=O)c2ccc(N3CCOCC3)nc2n2c1sc1ccccc12` [Cmpd 7]: the results for the IC50 in test [1], in test [2] and in test [3] were 653 nM, 955 nM and 714 nM, respectively.

Regarding `CN1CCN(NC(=O)c2c(=O)c3ccc(N4CCC(O)C4)nc3n3c2sc2ccccc23)CC1` (stereo not drawn) [Cmpd 13], the figures for the IC50 in test [1], in test [2] and in test [3] were 5880 nM, 3310 nM and 7320 nM, respectively.

On to `COC[C@H]1CCCN1NC(=O)c1c(=O)c2ccc(N3CCOCC3)nc2n2c1sc1ccccc12` [Cmpd 9], for which the IC50 stood at 1170 nM in test [1], 596 nM in test [2] and 720 nM in test [3].

Consider `Cn1c2ccccc2n2c3nc(N4CCOCC4)c(F)cc3c(=O)c(C(=O)NN3CCOCC3)c12` [Cmpd 21], for which the IC50 in test [1] stood at 662 nM; in test [2], 1300 nM.

`CN(C)NC(=O)c1c(=O)c2ccc(N3CCOCC3)nc2n2c1sc1ccccc12` [Cmpd 10]: the IC50 in test [1] turned out to be 523 nM; in test [2], 444 nM; in test [3] it was 414 nM; in test [4], 8990 nM.

As for `CN(C)NC(=O)c1c(=O)c2cc(F)c(N3CCOCC3)nc2n2c3ccccc3n(C)c12` [Cmpd 22], the IC50 in test [1] came to 1410 nM; in test [2], 2190 nM.

As to `CN1CCN(NC(=O)c2c(=O)c3cc(F)c(N(C)Cc4cnccn4)nc3n3c2sc2ccccc23)CC1` [Cmpd 4], the IC50 in test [1] came to 517 nM; in test [2] it was 173 nM; in test [3], 291 nM; in test [4] it was 7010 nM.

On to `O=C(NNC1=NCCN1)c1c(=O)c2cc(F)c(N3CCOCC3)nc2n2c1sc1ccccc12` [Cmpd 17], for which the IC50 in test [1] was 1 nM; in test [2] it was 3 nM; in test [3] it was 38 nM; in test [4], 1100 nM.

Turning to `CN1CCN(NC(=O)c2c(=O)c3ccc(N4CCOCC4)nc3n3c2sc2ccccc23)CC1` [Cmpd 1], the IC50 stood at 96 nM in test [1], 148 nM in test [3] and 1190 nM in test [4].

Consider `COc1ccc(CNc2ccc3c(=O)c(C(=O)NN4CCN(C)CC4)c4sc5ccccc5n4c3n2)cc1` [Cmpd 18], for which the IC50 is 985 nM in test [1], 893 nM in test [2] and 1290 nM in test [3].

Consider `O=C(Nn1cnnc1)c1c(=O)c2cc(F)c(N3CCOCC3)nc2n2c1sc1ccccc12` [Cmpd 16], for which the IC50 in test [1] turned out to be 292 nM; in test [2] it was 715 nM; in test [3], 350 nM; in test [4], 14000 nM.

Turning to `O=C(NN1CCOCC1)c1c(=O)c2cc(F)c(N3CCOCC3)nc2n2c1sc1ccccc12` [Cmpd 14], the results for the IC50 in test [1], in test [2] and in test [3] were 690 nM, 8090 nM and 2240 nM, respectively.

Consider `CN(C)NC(=O)c1c(=O)c2ccc(N3CCOCC3)nc2n2c1[nH]c1ccccc12` [Cmpd 23], for which, in test [1], the IC50 was found to be 1640 nM.

In the case of `O=C(NN1CCCCC1)c1c(=O)c2ccc(N3CCOCC3)nc2n2c1sc1ccccc12` [Cmpd 8], the IC50 is at least 50000 nM in test [1], at least 50000 nM in test [2], 458 nM in test [3] and 23600 nM in test [4].

The values above are taken from US20110065687A1, “HYDRAZIDE COMPOUNDS AND USES THEREOF” (priority 2007, published 2011).
